Reference: paper PMC12504684 (Communications Chemistry, 2025)
Like-named read-outs stand apart in the source and are kept apart here.

Tests used:
468 kinases [1] = settings: concentration of 100 nM; cited from earlier work
468 kinases [2] = assay type: binding; settings: concentration of 100 nM

| Compound | number of wild-type kinases inhibited (percent control <35%) (468 kinases [1]) | number of wild-type kinases inhibited (percent control <35%) (468 kinases [2]) |
| --- | --- | --- |
| Cc1cnc(Nc2ccc(OCCN3CCCC3)cc2)nc1Nc1cccc(S(=O)(=O)NC(C)(C)C)c1 [Fedratinib] | 34 | – |
| C1=C/COCc2cc(ccc2OCCN2CCCC2)Nc2nccc(n2)-c2cccc(c2)COC/1 [Pacritinib] | – | 55 |
